The source of these data is patent US12173018B2, “Penicillin-binding protein inhibitors” (priority 2018, dated 2024).

Format in all cases: cell-based
One assay deals with P. aeruginosa PAO1. The experiment in a line: Broth microdilution MIC, P. aeruginosa PAO1. To be noted: Pseudomonas aeruginosa; P. aeruginosa PAO1, broth microdilution; read-out: MIC P. aeruginosa PAO1. Summed up: (§1)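 Broth microdilution MICs followed CLSI methods in cation-supplemented Mueller-Hinton broth, with 2-fold serial compound dilutions. Log-phase cultures grown 3–5 h were added to a starting inoculum of 5×10^5 CFU/mL and incubated 16–20 h at 37 °C. The MIC was read visually as the lowest concentration with no growth.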
(Broth dilution looks for growth in wells or tubes with falling amounts of substance.)

In assay [1] the test system is P. aeruginosa (ΔmexAB-oprM). Briefly: microbe, parasite or virus in culture. To be noted: Pseudomonas aeruginosa, read-out: MIC P. aeruginosa ΔmexAB-OprM. Summed up:
as §1

A further assay relates to E. coli 901C. The experiment in a line: microbe, parasite or virus in culture. To be noted: Escherichia coli; hyper-permeable E. coli 901C, broth microdilution; read-out: MIC E. coli 901C. Summed up:
as §1

The next assay deals with K. pneumoniae UMM. Briefly: microbe, parasite or virus in culture. To be noted: Klebsiella pneumoniae; K. pneumoniae UMM producing SHV-5 and KPC-2; read-out: MIC K. pneumoniae UMM. Summed up:
as §1

Another assay has as its system E. coli AG100A. The experiment in a line: microbe, parasite or virus in culture. Conditions: Escherichia coli, read-out: MIC E. coli AG100A. Summed up: as §1
A further assay concerns P. aeruginosa ATCC 35151. Briefly: microbe, parasite or virus in culture. Conditions: Pseudomonas aeruginosa, ATCC35151; hyper-permeable P. aeruginosa ATCC 35151; read-out: MIC P. aeruginosa ATCC 35151. Summed up: as §1
For another assay, the system named is K. pneumoniae SI-117. The experiment in a line: microbe, parasite or virus in culture. To be noted: Klebsiella pneumoniae, SI117, read-out: MIC K. pneumoniae SI-117. Summed up:
as §1

Another assay concerns E. coli D22. The experiment in a line: microbe, parasite or virus in culture. Conditions: Escherichia coli; hyper-permeable E. coli D22, broth microdilution; read-out: MIC E. coli D22. Summed up:
as §1

For the next assay, the system named is A. baumannii ATCC 19606. The experiment in a line: Broth microdilution MIC, A. baumannii ATCC 19606. To be noted: Acinetobacter baumannii, ATCC19606; A. baumannii ATCC 19606, broth microdilution; read-out: MIC A. baumannii ATCC 19606. Summed up: as §1
For a further assay, the system named is E. coli AG100. The experiment in a line: Broth microdilution MIC, E. coli AG100 (wild-type parent). To be noted: Escherichia coli; wild-type parent E. coli AG100, broth microdilution; read-out: MIC E. coli AG100. Summed up:
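Starting inoculum of 5×10^5 CFU/mL, from colonies grown 3-5 h in Mueller-Hinton broth with divalent cations, added to two-fold compound dilution series.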

In assay [2] the test system is N. gonorrhoeae ATCC 49226. Briefly: Liquid broth MIC, N. gonorrhoeae ATCC 49226. To be noted: Neisseria gonorrhoeae, ATCC49226; N. gonorrhoeae ATCC 49226, liquid broth; read-out: Minimum Inhibitory Concentration, N. gonorrhoeae ATCC 49226. Summed up:
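Broth microdilution in wild-type strains: colonies from GC agar with 1% Kellogg's supplement suspended in GC broth, inoculated at 5×10^5 CFU/mL into 2-fold compound dilutions. Plates incubated 40-42 hours at 36° C., 5% CO2; MIC read visually as lowest concentration with no growth.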

Values after ≈ are worked out from the molar mass of the structure shown.

Turning to `NCCN1CCN(C(=O)N[C@@H](C(=O)N[C@H]2Cc3ccc(F)c(C(=O)O)c3OB2O)c2ccc(O)c(O)c2Cl)C(=O)C1=O` [Example 227, (R)-3-((R)-2-(4-(2-aminoethyl)-2,3-dioxopiperazine-1-carboxamido)-2-(2-chloro-3,4-dihydroxyphenyl)acetamido)-7-fluoro-2-hydroxy-3,4-dihydro-2H-benzo[e][1,2]oxaborinine-8-carboxylic acid], the MIC with P. aeruginosa PAO1 is less than 0.25 µg/mL; in assay [1], less than 0.25 µg/mL; with E. coli 901C, less than 0.25 µg/mL; with K. pneumoniae UMM, 0.5 to 1 µg/mL; in the assay with E. coli AG100A, less than 0.25 µg/mL; with P. aeruginosa ATCC 35151, less than 0.25 µg/mL. Also, the MIC with K. pneumoniae SI-117 is 0.5 to 1 µg/mL; in the assay on E. coli D22, 0.5 to 1 µg/mL; in the assay with A. baumannii ATCC 19606, less than 0.25 µg/mL; with E. coli AG100, less than 0.25 µg/mL; in [2] it was 4 to 8 µg/mL (≈ 6.58 to 13.2 µM).
As for `CC(=O)NCCN1CCN(C(=O)NC(C(=O)N[C@H]2Cc3cccc(C(=O)O)c3OB2O)c2ccc(O)c(O)c2Cl)C(=O)C1=O` (stereo partly drawn) [Example 228, (3R)-3-(2-(4-(2-acetamidoethyl)-2,3-dioxopiperazine-1-carboxamido)-2-(2-chloro-3,4-dihydroxyphenyl)acetamido)-2-hydroxy-3,4-dihydro-2H-benzo[e][1,2]oxaborinine-8-carboxylic acid], the MIC was 0.5 to 1 µg/mL in the assay on P. aeruginosa PAO1; less than 0.25 µg/mL in [1]; 0.5 to 1 µg/mL with E. coli 901C; 0.5 to 1 µg/mL with K. pneumoniae UMM; 0.5 to 1 µg/mL in the assay on E. coli AG100A; less than 0.25 µg/mL with P. aeruginosa ATCC 35151. The MIC in the assay on K. pneumoniae SI-117 is 2 to 4 µg/mL; in the assay with E. coli D22, 2 to 4 µg/mL; in the assay with A. baumannii ATCC 19606 it was 0.5 to 1 µg/mL; in the assay on E. coli AG100, 2 to 4 µg/mL; in assay [2], more than 64 µg/mL.
As for `CS(=O)(=O)NCCN1CCN(C(=O)NC(C(=O)N[C@H]2Cc3cccc(C(=O)O)c3OB2O)c2ccc(O)c(O)c2Cl)C(=O)C1=O` (stereo partly drawn) [Example 229, (3R)-3-(2-(2-chloro-3,4-dihydroxyphenyl)-2-(4-(2-(methylsulfonamido)ethyl)-2,3-dioxopiperazine-1-carboxamido)acetamido)-2-hydroxy-3,4-dihydro-2H-benzo[e][1,2]oxaborinine-8-carboxylic acid], the MIC is 2 to 4 µg/mL with P. aeruginosa PAO1; less than 0.25 µg/mL in [1]; 0.5 to 1 µg/mL with E. coli 901C; 8 to 16 µg/mL with K. pneumoniae UMM; 0.5 to 1 µg/mL in the assay with E. coli AG100A; less than 0.25 µg/mL in the assay on P. aeruginosa ATCC 35151. Moreover, the MIC in the assay with K. pneumoniae SI-117 is 8 to 16 µg/mL; in the assay on E. coli D22, 2 to 4 µg/mL; in the assay with A. baumannii ATCC 19606, less than 0.25 µg/mL; with E. coli AG100, 2 to 4 µg/mL; in [2] it was more than 64 µg/mL.
As to `NCCN1CCN(C(=O)N[C@@H](C(=O)N[C@H]2Cc3ccc(F)c(C(=O)O)c3OB2O)c2ncc(O)cc2F)C(=O)C1=O` [Example 230, (R)-3-((R)-2-(4-(2-aminoethyl)-2,3-dioxopiperazine-1-carboxamido)-2-(3-fluoro-5-hydroxypyridin-2-yl)acetamido)-7-fluoro-2-hydroxy-3,4-dihydro-2H-benzo[e][1,2]oxaborinine-8-carboxylic acid], the MIC with P. aeruginosa PAO1 was 32 to 64 µg/mL; in [1] it was 2 to 4 µg/mL; with E. coli 901C, 0.5 to 1 µg/mL; in the assay with K. pneumoniae UMM, 8 to 16 µg/mL; in the assay with E. coli AG100A, 2 to 4 µg/mL; in the assay on P. aeruginosa ATCC 35151, less than 0.25 µg/mL. For the same compound, the MIC in the assay on K. pneumoniae SI-117 is 8 to 16 µg/mL; with E. coli D22 it was 2 to 4 µg/mL; in the assay with A. baumannii ATCC 19606 it was more than 128 µg/mL; in the assay on E. coli AG100, 8 to 16 µg/mL; in [2], 4 to 8 µg/mL (≈ 6.94 to 13.9 µM).
